Experimental data as given in US9056843B2, “Trifluoromethyl-oxadiazole derivatives and their use in the treatment of disease” (NOVARTIS AG, priority 2011, dated 2015).

How the values were obtained:
Type in all cases: biochemical
Human recombinant HDAC4 = Human recombinant HDAC4 (Homo sapiens (Human), UniProt P56524); test: Test 2: HDAC4 assay (fluorogenic substrate, 5 μM acetyl-Gly-Ala-Lys(ε-trifluoroacetyl)-AMC); settings: Test 2 (values without asterisk)
Method: Test 2: HDAC4 Assay Description
(§1) Control wells with HDAC4 only (positive control) and without HDAC4 (negative control) were included on the microplate. Bovine trypsin (4.5 μl of a 300 nM solution) was added and the plate incubated for additional 15 minutes at room temperature. The plate was placed in a fluorescence microplate reader, and read at an excitation wavelength of 360 nm and an emission wavelength of 450 nm with a 10 nm bandpath. Fluorescence values for all wells containing HDAC4 (positive control and wells with test compound) were corrected by subtracting negative control fluorescence values, and IC50 values were calculated by fitting the dose-response curves to a 4-parameter logistic function.

[1] = target: Human recombinant full length HDAC1 (Homo sapiens (Human), UniProt Q13547); test: Test 3: HDAC1 assay; settings: substrate 5 μM acetyl-Gly-Ala-Lys(acetyl)-AMC
Human recombinant full length HDAC1, sequence (Q13547 whole entry): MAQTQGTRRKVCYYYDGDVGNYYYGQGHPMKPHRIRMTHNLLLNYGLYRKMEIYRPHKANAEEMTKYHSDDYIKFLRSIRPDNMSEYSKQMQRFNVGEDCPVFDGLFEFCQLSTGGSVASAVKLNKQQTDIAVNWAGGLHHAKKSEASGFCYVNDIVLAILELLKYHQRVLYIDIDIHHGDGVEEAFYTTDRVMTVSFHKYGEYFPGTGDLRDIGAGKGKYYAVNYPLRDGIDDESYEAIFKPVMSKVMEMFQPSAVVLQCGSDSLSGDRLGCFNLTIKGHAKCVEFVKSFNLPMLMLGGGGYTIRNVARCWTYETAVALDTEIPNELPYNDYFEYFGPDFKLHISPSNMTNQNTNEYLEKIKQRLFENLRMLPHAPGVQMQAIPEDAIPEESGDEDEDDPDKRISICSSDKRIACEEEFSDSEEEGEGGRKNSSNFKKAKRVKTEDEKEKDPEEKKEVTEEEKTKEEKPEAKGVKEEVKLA
Method: as §1
Test 3: HDAC1 Assay Description
A similar assay procedure as described in Test 2 was used for HDAC1. Human recombinant full length HDAC1 expressed in a baculovirus expression system was purchased from BPS BioSciences (San Diego, Calif., U.S.A.). The substrate used in the […] assay was 5 μM of acetyl-Gly-Ala-Lys(acetyl)-AMC.

[2] = target: Human recombinant full length HDAC6 (Homo sapiens (Human), UniProt Q9UBN7); test: Test 4: HDAC6 assay; settings: Test 4; substrate 5 μM acetyl-Gly-Ala-Lys(acetyl)-AMC
Human recombinant full length HDAC6, sequence (Q9UBN7 whole entry): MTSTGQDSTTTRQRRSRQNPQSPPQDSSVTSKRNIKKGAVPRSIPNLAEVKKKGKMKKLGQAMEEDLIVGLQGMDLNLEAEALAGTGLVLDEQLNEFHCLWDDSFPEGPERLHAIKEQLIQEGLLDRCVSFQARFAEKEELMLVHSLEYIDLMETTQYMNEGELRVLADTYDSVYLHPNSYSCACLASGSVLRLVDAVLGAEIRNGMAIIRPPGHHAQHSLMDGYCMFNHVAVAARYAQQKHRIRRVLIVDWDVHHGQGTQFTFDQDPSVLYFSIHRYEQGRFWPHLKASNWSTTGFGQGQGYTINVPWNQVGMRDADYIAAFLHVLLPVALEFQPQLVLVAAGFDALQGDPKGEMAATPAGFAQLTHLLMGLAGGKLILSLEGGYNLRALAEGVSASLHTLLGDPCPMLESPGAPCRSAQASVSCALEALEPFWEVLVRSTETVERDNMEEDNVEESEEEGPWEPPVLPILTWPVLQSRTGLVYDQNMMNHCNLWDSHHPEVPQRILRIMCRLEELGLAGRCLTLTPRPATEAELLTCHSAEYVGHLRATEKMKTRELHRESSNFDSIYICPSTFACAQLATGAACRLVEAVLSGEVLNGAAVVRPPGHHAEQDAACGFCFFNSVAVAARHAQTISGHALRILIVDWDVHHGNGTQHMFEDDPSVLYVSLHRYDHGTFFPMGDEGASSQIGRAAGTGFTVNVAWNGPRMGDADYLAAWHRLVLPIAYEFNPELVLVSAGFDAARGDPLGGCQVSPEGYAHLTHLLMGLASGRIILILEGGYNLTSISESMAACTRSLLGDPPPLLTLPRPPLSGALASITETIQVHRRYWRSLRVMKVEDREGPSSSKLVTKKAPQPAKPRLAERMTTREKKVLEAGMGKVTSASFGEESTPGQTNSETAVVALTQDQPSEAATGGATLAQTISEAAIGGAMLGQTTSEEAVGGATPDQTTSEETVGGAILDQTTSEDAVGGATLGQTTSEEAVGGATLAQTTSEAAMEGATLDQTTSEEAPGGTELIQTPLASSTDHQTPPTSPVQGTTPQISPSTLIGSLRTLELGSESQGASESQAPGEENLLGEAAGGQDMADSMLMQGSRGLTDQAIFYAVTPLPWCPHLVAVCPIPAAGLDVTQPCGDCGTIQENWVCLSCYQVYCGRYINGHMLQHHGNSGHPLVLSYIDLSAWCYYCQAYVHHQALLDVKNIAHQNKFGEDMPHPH
Method: as §1
Test 4: HDAC6 Assay Description
A similar assay procedure as described in Test 2 was used for HDAC6. Human recombinant full length HDAC6 expressed in a baculovirus expression system was purchased from BPS BioSciences (San Diego, Calif., U.S.A.). The substrate used in the […] assay was 5 μM of acetyl-Gly-Ala-Lys(acetyl)-AMC.

Human recombinant HDAC4, sequence (P56524 2-1084): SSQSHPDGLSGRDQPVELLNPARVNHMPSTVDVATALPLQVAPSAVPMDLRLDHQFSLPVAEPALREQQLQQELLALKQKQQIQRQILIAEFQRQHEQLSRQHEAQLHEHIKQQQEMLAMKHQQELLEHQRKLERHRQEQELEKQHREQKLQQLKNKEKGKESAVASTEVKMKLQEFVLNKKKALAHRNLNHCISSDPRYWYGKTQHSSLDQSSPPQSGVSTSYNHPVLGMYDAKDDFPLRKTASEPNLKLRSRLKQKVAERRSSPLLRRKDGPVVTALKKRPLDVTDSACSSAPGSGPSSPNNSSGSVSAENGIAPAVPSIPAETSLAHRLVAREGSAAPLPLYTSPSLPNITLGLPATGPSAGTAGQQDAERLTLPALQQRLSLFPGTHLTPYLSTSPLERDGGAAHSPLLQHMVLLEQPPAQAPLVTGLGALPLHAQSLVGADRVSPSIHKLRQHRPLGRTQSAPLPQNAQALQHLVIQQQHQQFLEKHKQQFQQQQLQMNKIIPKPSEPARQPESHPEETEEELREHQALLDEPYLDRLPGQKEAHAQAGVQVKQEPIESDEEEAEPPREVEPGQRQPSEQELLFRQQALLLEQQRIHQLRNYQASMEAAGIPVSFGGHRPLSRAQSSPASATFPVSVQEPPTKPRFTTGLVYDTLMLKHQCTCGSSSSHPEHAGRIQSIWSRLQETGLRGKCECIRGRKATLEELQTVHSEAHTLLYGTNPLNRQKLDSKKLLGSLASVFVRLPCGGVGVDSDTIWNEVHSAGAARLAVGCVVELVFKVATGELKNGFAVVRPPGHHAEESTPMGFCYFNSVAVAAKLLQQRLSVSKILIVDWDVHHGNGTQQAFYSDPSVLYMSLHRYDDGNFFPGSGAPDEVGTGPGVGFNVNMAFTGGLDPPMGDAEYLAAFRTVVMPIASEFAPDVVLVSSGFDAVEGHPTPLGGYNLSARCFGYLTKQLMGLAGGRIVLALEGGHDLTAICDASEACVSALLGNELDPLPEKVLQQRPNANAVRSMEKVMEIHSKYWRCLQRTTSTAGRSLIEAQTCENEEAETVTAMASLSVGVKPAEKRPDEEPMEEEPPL

Row | Structure (SMILES) | IC50 (Human recombinant HDAC4) | IC50 [1] | IC50 [2]
1 | O=C(NCCCn1ccnc1)c1ccc(-c2noc(C(F)(F)F)n2)cc1 [Example 40, N-(3-(1 H-imidazol-1-yl)propyl)-4-(5-(trifluoromethyl)-1,2,4-oxadiazol-3-yl)benzamide] | 460 nM | > 10 µM | 4.6 µM
2 | O=C(NC1CCCCC1)c1ccc(-c2noc(C(F)(F)F)n2)cc1 [Example 34, N-cyclohexyl-4-(5-(trifluoromethyl)-1,2,4-oxadiazol-3-yl)benzamide] | 750 nM | > 10 µM | > 10 µM
3 | COCCNC(=O)Cc1ccc(-c2noc(C(F)(F)F)n2)cc1 [Example 7, N-(2-methoxyethyl)-2-(4-(5-(trifluoromethyl)-1,2,4-oxadiazol-3-yl)phenyl)acetamide] | 960 nM | > 10 µM | 6.9 µM
4 | CCOC(=O)CNC(=O)Cc1ccc(-c2noc(C(F)(F)F)n2)cc1 [Example 8, Ethyl 2-(2-(4-(5-(trifluoromethyl)-1,2,4-oxadiazol-3-yl)phenyl)acetamido)acetate] | 580 nM | > 10 µM | 7.6 µM
5 | CCCN(CC)C[C@@H](C)NC(=O)c1ccc(-c2noc(C(F)(F)F)n2)cc1F [Example 146, (R)—N-(1-(ethyl(propyl)amino)propan-2-yl)-2-fluoro-4-(5-(trifluoromethyl)-1,2,4-oxadiazol-3-yl)benzamide] | 1.6 nM | 5.1 µM | 2.4 µM
6 | CCNC(=O)c1ccc(-c2noc(C(F)(F)F)n2)cc1 [Example 12, N-ethyl-4-(5-(trifluoromethyl)-1,2,4-oxadiazol-3-yl)benzamide] | 430 nM | > 10 µM | 4.1 µM
7 | O=C(NCc1ccc(CN2CCOCC2)cc1)c1ccc(-c2noc(C(F)(F)F)n2)cc1 [Example 44, N-(4-(morpholinomethyl)benzyl)-4-(5-(trifluoromethyl)-1,2,4-oxadiazol-3-yl)benzamide] | 380 nM | > 10 µM | 5.7 µM
8 | O=C(NCc1ccccc1)c1ccc(-c2noc(C(F)(F)F)n2)cc1 [Example 46, N-benzyl-4-(5-(trifluoromethyl)-1,2,4-oxadiazol-3-yl)benzamide] | 780 nM | > 10 µM | 3.3 µM
9 | O=C(c1ccc(-c2noc(C(F)(F)F)n2)cc1)N1CCCCC1 [Example 33, Piperidin-1-yl(4-(5-(trifluoromethyl)-1,2,4-oxadiazol-3-yl)phenyl)methanone] | 400 nM | > 10 µM | > 10 µM
10 | CC(C)[C@H](CN(C)C)NC(=O)c1ccc(-c2noc(C(F)(F)F)n2)cc1F [Example 89, (R)—N-(1-(dimethylamino)-3-methylbutan-2-yl)-2-fluoro-4-(5-(trifluoromethyl)-1,2,4-oxadiazol-3-yl)benzamide] | 45 nM | > 10 µM | > 10 µM
11 | CCN(CC)C[C@H](NC(=O)c1ccc(-c2noc(C(F)(F)F)n2)cc1F)C(C)C [Example 135, (R)—N-(1-(diethylamino)-3-methylbutan-2-yl)-2-fluoro-4-(5-(trifluoromethyl)-1,2,4-oxadiazol-3-yl)benzamide] | 10 nM | > 10 µM | > 10 µM
12 | Cc1cc(NC(=O)c2ccc(-c3noc(C(F)(F)F)n3)cc2)cc(C)n1 [Example 68, N-(2,6-dimethylpyridin-4-yl)-4-(5-(trifluoromethyl)-1,2,4-oxadiazol-3-yl)benzamide] | 170 nM | > 10 µM | 5.3 µM
13 | O=S(=O)(N[C@@H]1CCNC1)c1ccc(-c2noc(C(F)(F)F)n2)cc1 [Example 102, (R)—N-(pyrrolidin-3-yl)-4-(5-(trifluoromethyl)-1,2,4-oxadiazol-3-yl)benzenesulfonamide] | 3200 nM | > 10 µM | > 10 µM
14 | O=C(Nc1ccnc(F)c1)c1ccc(-c2noc(C(F)(F)F)n2)cc1 [Example 71, N-(2-fluoropyridin-4-yl)-4-(5-(trifluoromethyl)-1,2,4-oxadiazol-3-yl)benzamide] | 920 nM | > 10 µM | > 10 µM
15 | CN(C)CCCN(C)S(=O)(=O)c1ccc(-c2noc(C(F)(F)F)n2)cc1 [Example 112, N-(3-(dimethylamino)propyl)-N-methyl-4-(5-(trifluoromethyl)-1,2,4-oxadiazol-3-yl)benzenesulfonamide] | 820 nM | > 10 µM | 9.1 µM
16 | COCCNC(=O)c1ccc(-c2noc(C(F)(F)F)n2)cc1 [Example 16, N-(2-methoxyethyl)-4-(5-(trifluoromethyl)-1,2,4-oxadiazol-3-yl)benzamide] | 1400 nM | > 10 µM | 6.8 µM
17 | CNCCNC(=O)c1ccc(-c2noc(C(F)(F)F)n2)cc1 [Example 157, N-(2-(methylamino)ethyl)-4-(5-(trifluoromethyl)-1,2,4-oxadiazol-3-yl)benzamide] | 40 nM | 6.1 µM | 3.4 µM
18 | CC(C)N(C)C[C@@H](C)NC(=O)c1ccc(-c2noc(C(F)(F)F)n2)cc1 [Example 138, (R)—N-(1-(isopropyl(methyl)amino)propan-2-yl)-4-(5-(trifluoromethyl)-1,2,4-oxadiazol-3-yl)benzamide] | 4.5 nM | > 10 µM | > 10 µM
19 | CN(C)CCN(C)S(=O)(=O)c1ccc(-c2noc(C(F)(F)F)n2)cc1 [Example 99, N-(2-(dimethylamino)ethyl)-N-methyl-4-(5-(trifluoromethyl)-1,2,4-oxadiazol-3-yl)benzenesulfonamide] | 1350 nM | > 10 µM | 9.9 µM
20 | C[C@H](CN(C)C)NC(=O)c1ccc(-c2noc(C(F)(F)F)n2)cc1 [Example 81, (R)—N-(1-(dimethylamino)propan-2-yl)-4-(5-(trifluoromethyl)-1,2,4-oxadiazol-3-yl)benzamide] | 34 nM | > 10 µM | > 10 µM
21 | CN1CCN(C(=O)c2ccc(-c3noc(C(F)(F)F)n3)cc2)CC1 [Example 36, (4-methylpiperazin-1-yl)(4-(5-(trifluoromethyl)-1,2,4-oxadiazol-3-yl)phenvyl)methanone] | 2700 nM | > 10 µM | > 10 µM
22 | O=C(Nc1ccncc1)c1ccc(-c2noc(C(F)(F)F)n2)cc1 [Example 47, N-(ppyridin-4-yl)-4-(5-(trifluoromethyl)-1,2,4-oxadiazol-3-yl)benzamide] | 54 nM | > 10 µM | 2.1 µM
23 | O=C(NCC1CCCCN1)c1ccc(-c2noc(C(F)(F)F)n2)cc1 (stereo not drawn) [Example 78, N-(piperidin-2-ylmethyl)-4-(5-(trifluoromethyl)-1,2,4-oxadiazol-3-yl)benzamide] | 30 nM | > 10 µM | 7 µM
24 | CC(C)NC(=O)Cc1ccc(-c2noc(C(F)(F)F)n2)cc1 [Example 5, N-Isopropyl-2-[4-(5-trifluoromethyl-[1,2,4]oxadiazol-3-yl)-phenyl]-acetamide] | 970 nM | > 10 µM | 3.1 µM
25 | CC(C)CC(CO)NC(=O)c1ccc(-c2noc(C(F)(F)F)n2)cc1 (stereo not drawn) [Example 58, N-(1-hydroxy-4-methylpentan-2-yl)-4-(5-(trifluoromethyl)-1,2,4-oxadiazol-3-yl)benzamide] | 650 nM | > 10 µM | 5.5 µM
26 | CC(C)(C)OC(=O)N1CCC(NC(=O)c2ccc(-c3noc(C(F)(F)F)n3)cc2)CC1 [Example 59, 4-[4-(5-trifluoromethyl-[1,2,4]oxadiazol-3-yl)-benzoylamino]-piperidine-1-carboxylic acid tert-butyl ester] | 1400 nM | > 10 µM | > 10 µM
27 | CCCN(CCC)C[C@@H](C)NC(=O)c1ccc(-c2noc(C(F)(F)F)n2)cc1F [Example 141, (R)—N-(1-(dipropylamino)propan-2-yl)-2-fluoro-4-(5-(trifluoromethyl)-1,2,4-oxadiazol-3-yl)benzamide] | 1.4 nM | 4.2 µM | 1.4 µM
28 | C[C@H](CN1CCCCC1)NC(=O)c1ccc(-c2noc(C(F)(F)F)n2)cc1 [Example 131, (R)—N-(1-(piperidin-1-yl)propan-2-yl)-4-(5-(trifluoromethyl)-1,2,4-oxadiazol-3-yl)benzamide] | 10 nM | 6.55 µM | 7.5 µM
29 | O=C(NCC1CC1)c1ccc(-c2noc(C(F)(F)F)n2)cc1 [Example 26, N-(cyclopropylmethyl)-4-(5-(trifluoromethyl)-1,2,4-oxadiazol-3-yl)benzamide] | 610 nM | > 10 µM | 3.2 µM
30 | CC(C)(C)c1cc(NC(=O)c2ccc(-c3noc(C(F)(F)F)n3)cc2)ccn1 [Example 69, N-(2-(tert-butyl)pyridin-4-yl)-4-(5-(trifluoromethyl)-1,2,4-oxadiazol-3-yl)benzamide] | 290 nM | > 10 µM | 6.8 µM
